Laboratory results published in PubChem BioAssay (NCI).
Where “and” joins values, the source holds several entries; their conditions need not be identical. Equal values may be shown once.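 Values below derive from 48-hour exposures of cells grown in 96-well plates, with endpoints linearly interpolated between the two concentrations bracketing the appropriate inhibition level. Here, GI50 denotes the concentration required for 50% inhibition of growth. TGI: total growth inhibition.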

Legend:
Experiment in all cases: DTP human tumour cell line panel, 48 h
A549 NSCLC = test system: A549 NSCLC
COLO 205 colon = test system: COLO 205 colon
HT29 colon = test system: HT29 colon
IGROV1 ovarian = test system: IGROV1 ovarian
K-562 leukemia = test system: K-562 leukemia
MALME-3M melanoma = test system: MALME-3M melanoma
NCI-H23 lung = test system: NCI-H23 lung
SNB-75 CNS = test system: SNB-75 CNS
UACC-62 melanoma = test system: UACC-62 melanoma
CCRF-CEM leukemia = test system: CCRF-CEM leukemia

Row | Structure (SMILES) | TGI (A549 NSCLC) [µM] | TGI (COLO 205 colon) [µM] | TGI (HT29 colon) [µM] | TGI (IGROV1 ovarian) [µM] | TGI (K-562 leukemia) [µM] | TGI (MALME-3M melanoma) [µM] | TGI (NCI-H23 lung) [µM] | TGI (SNB-75 CNS) [µM] | TGI (UACC-62 melanoma) | TGI (CCRF-CEM leukemia) [µM] | GI50 (A549 NSCLC) [µM] | GI50 (CCRF-CEM leukemia) [µM] | GI50 (HT29 colon) [µM] | GI50 (IGROV1 ovarian) [µM] | GI50 (MALME-3M melanoma) [µM] | GI50 (NCI-H23 lung) [µM] | GI50 (SNB-75 CNS) [µM] | GI50 (UACC-62 melanoma) [µM] | GI50 (COLO 205 colon) [µM] | GI50 (K-562 leukemia) [µM]
1 | CC(CCCC1SCC2NC(=O)NC21)C(=O)O (stereo not drawn) | > 100 | > 100 | > 100 | > 100 | > 100 | > 100 | > 100 | > 100 | > 100 µM | – | – | – | – | – | – | – | – | – | – | –
2 | Cc1ccc(NC(=O)CC/C(CC(=O)C(C)(C)C)=N\Nc2ccc([N+](=O)[O-])cc2[N+](=O)[O-])cc1C | > 100 | > 100 | > 100 | > 100 | > 100 | – | > 100 | – | > 100 µM | 98 | – | – | – | – | – | – | – | – | – | –
3 | C=C1NC(=O)C(CC(C(=O)C(=O)Nc2c(C)cccc2C(C)(C)C)C(=O)c2ccc3ccccc3c2)C(=O)N1 (stereo not drawn) | > 100 | > 100 | > 100 | – | > 100 | – | > 100 | > 100 | > 100 µM | > 100 | – | – | – | – | – | – | – | – | – | –
4 | C/C(CCn1[nH]c(=O)ccc1=O)=N\Nc1ccc([N+](=O)[O-])cc1[N+](=O)[O-] | > 100 | – | > 100 | > 100 | > 100 | > 100 | > 100 | > 100 | > 100 µM | > 100 | – | – | – | – | – | – | – | – | – | –
5 | CCCCCCCCCCCCCC(=O)OCC1OC(n2cc(F)c(=O)[nH]c2=O)C(N)C(OC(=O)CCCCCCCCCCCCC)C1O (stereo not drawn) | > 100 | > 100 | > 100 | – | > 100 | > 100 | > 100 | > 100 | > 100 µM | – | – | – | – | – | – | – | – | – | – | –
6 | C=C1CCC2C3(C)COC(c4ccc(Cl)cc4)OC3CCC2(C)C1/C=C/C1=CCOC1=O (stereo not drawn) | 32.5 | – | > 100 | > 100 | > 100 | 71.4 | > 100 | 41.5 | > 100 µM | 12.6 | 2.37 | 1.56 | 5.52 | 50 | 11.3 | 3.19 | 12.1 | 4 | – | –
7 | CCOC(=O)NC(=O)c1cn(CCN2CCNCC2)c(=O)[nH]c1=O | > 100 | > 100 | > 100 | > 100 | > 100 | – | > 100 | – | > 100 µM | > 100 | – | – | – | – | – | – | – | – | – | –
8 | NNC(=O)N/N=C1\C(=O)N(c2nccs2)C(=O)C(=O)C1c1nc2ccccc2s1 (stereo not drawn) | > 100 | > 100 | > 100 | > 100 | – | > 100 | > 100 | > 100 | > 100 µM | – | – | – | – | – | – | – | – | – | – | –
9 | Nc1ccc2c(c1)Oc1c(F)c(F)cc3c(=O)c(C(=O)O)cn-2c13 | > 100 | > 100 | > 100 | > 100 | > 100 | > 100 | > 100 | – | > 100 µM | > 100 | – | – | – | – | – | – | – | – | – | –
10 | COc1ccc2c(c1)C(=O)c1c-2n(CCCN)c(=O)c2cc(OC)c(OC)cc12 | 0.182 | – | 0.214 | 0.976 | – | 3 | – | 2.55 | 1.93 µM | – | 0.0267 | < 0.01 | 0.0684 | 0.154 | 1.14 | – | 1.16 | 0.299 | – | –
11 | Cc1cc(C)nc(NS(=O)(=O)c2ccc(NC(=O)c3ccc(Cl)c4c(Nc5ccc(S(=O)(=O)N=C(N)N)cc5)c5ccccc5nc34)cc2)n1 | > 100 | > 100 | 30.2 | > 100 | > 100 | > 100 | 17.5 | > 100 | > 100 µM | – | – | – | – | – | – | – | – | – | – | –
12 | Cc1ccc(/C=C(\C#N)c2ccccc2)cc1 | – | > 100 | > 100 | > 100 | > 100 | – | > 100 | > 100 | > 100 µM | > 100 | – | – | – | – | – | – | – | – | – | –
13 | CN(C)CCC1(C2=CCCC2)CC/C(=C\c2ccccc2Cl)C1=O (stereo not drawn) | 28.4 | 41 | 20.7 | 37.5 | 14.5 | 28 | 30 | – | 29.8 µM | 29 | – | – | – | – | – | – | – | – | – | –
14 | OC1CCC[C@@H]1Sc1ccccc1 (stereo partly drawn) | > 100 | > 100 | – | – | > 100 | – | > 100 | > 100 | > 100 µM | > 100 | – | – | – | – | – | – | – | – | – | –
15 | COc1ccc(C[C@H](N)C(=O)N2C[C@@H](CO)C[C@@H](n3cnc4c(N(C)C)ncnc43)C2)cc1 | > 100 | – | > 100 | > 100 | > 100 | > 100 | > 100 | – | > 100 µM | > 100 | – | – | – | – | – | – | – | – | – | –
16 | NC(=Nc1nc(-c2ccccn2)cc2ccccc12)c1ccccn1 | > 48.7 | – | > 100 | > 24.1 | 5.3 | – | > 61.6 | – | 0.171 µM and 0.266 µM | – | 0.255 | 0.00229 | 0.0708 | 0.0212 | 0.126 | 0.0743 | – | 0.0492 | 0.00195 | 0.0199
